Results reported in patent US20190093163A1, “COMPOSITIONS AND METHODS FOR MAINTAINING SPLICING FIDELITY” (President and Fellows of Harvard College, priority 2015, published 2019).

Tested on: SF1
Assay: Immunoblots of SF1 in WT MEFs treated with TORC1 inhibitors
Type: cell-based
Details: mouse embryonic fibroblasts; rapamycin 20 nM, Torin 250 nM
Protocol: To control for the SF1 antibody specificity, WT MEF transfected with non-targeting control siRNAs (siCt) or SF1 siRNA for 72 h and grown in 10% FBS, are shown on the right side of the blot. Biological duplicates are shown except for the siRNA treated lanes.
Immunoblotting was performed as in FIG. 14, Panel G. Biological duplicates are shown except for the siRNA treated lanes.
The inverted splicing reporter WBM535 was made by injecting modified minigene reporter plasmids into N2 worms. The plasmids were made by deleting the (+2) frameshift in the EGFP minigene and inserting a (+2) frameshift into the mCherry minigene. Worms were grown and maintained on standard nematode growth media (NGM) seeded with E. coli (OP50-1). E. coli bacteria were cultured overnight in LB at 37° C., after which 100 μl of liquid culture was seeded on plates to grow for 2 days at room temperature. Lifespans—All lifespans were conducted at 20° C. unless otherwise noted in figure legend. Lifespans were performed as described in Burkewitz et al. (93). Graphpad Prism 6 was used to plot survival curves and determine median lifespan. Survival curves were compared and p values calculated using the log-rank (Mantel-Cox) analysis method. […] RNA interference—All RNAi constructs came from the Ahringer RNAi library, except hrp-2 and hrpf-1 RNAi constructs, which originated from the Vidal RNAi library. RNAi experiments were carried out using E. coli HT115 bacteria on standard NGM plates containing 100 μg/ml Carbenicillin. […] NGM plus Carbenicillin plates were seeded 48 hours before use. Respective dsRNA expressing HT115 bacteria were induced by adding 100 μl IPTG (100 mM) one hour before introducing worms to the plate. RNAi was induced for all experiments from egg hatch. Solid plate-based dietary restriction assays—Solid sDR assays were performed as described by Ching et al. (79). Plates were prepared in advance and stored at 4° C.

Question: `CO[C@H]1C[C@@H]2CC[C@@H](C)[C@@](O)(O2)C(=O)C(=O)N2CCCC[C@H]2C(=O)O[C@H]([C@H](C)C[C@@H]2CC[C@@H](O)[C@H](OC)C2)CC(=O)[C@H](C)/C=C(\C)[C@@H](O)[C@@H](OC)C(=O)[C@H](C)C[C@H](C)/C=C/C=C/C=C/1C` [rapamycin] was tested. Which “total SF1 levels” value did it give?
Answer: The value was “no effect”.

Question: For `CCC(=O)N1CCN(c2ccc(-n3c(=O)ccc4cnc5ccc(-c6cnc7ccccc7c6)cc5c43)cc2C(F)(F)F)CC1` [torin, Torin1], which “SF1 gel shifts indicative of altered phosphorylation” value is on record?
Answer: The value was “nor did were SF1 gel shifts indicative of altered phosphorylation seen”.

Question: And the “total SF1 levels” value?
Answer: Its value is “no effect”.
